This is an account of results in patent US10844064B2, “sGC stimulators” (Cyclerion Therapeutics, Inc., priority 2014, dated 2020).

Where only a bound is given, the exact number is not on record here.

In the first assay the target is T1, soluble guanylate cyclase (sGC) (Homo sapiens, UniProt Q02108+Q02153).
T1 construct: endogenously expressing soluble guanylate cyclase (sGC); endogenous in cells; host or cells: HEK293
T1 sequence (Q02108 1-690): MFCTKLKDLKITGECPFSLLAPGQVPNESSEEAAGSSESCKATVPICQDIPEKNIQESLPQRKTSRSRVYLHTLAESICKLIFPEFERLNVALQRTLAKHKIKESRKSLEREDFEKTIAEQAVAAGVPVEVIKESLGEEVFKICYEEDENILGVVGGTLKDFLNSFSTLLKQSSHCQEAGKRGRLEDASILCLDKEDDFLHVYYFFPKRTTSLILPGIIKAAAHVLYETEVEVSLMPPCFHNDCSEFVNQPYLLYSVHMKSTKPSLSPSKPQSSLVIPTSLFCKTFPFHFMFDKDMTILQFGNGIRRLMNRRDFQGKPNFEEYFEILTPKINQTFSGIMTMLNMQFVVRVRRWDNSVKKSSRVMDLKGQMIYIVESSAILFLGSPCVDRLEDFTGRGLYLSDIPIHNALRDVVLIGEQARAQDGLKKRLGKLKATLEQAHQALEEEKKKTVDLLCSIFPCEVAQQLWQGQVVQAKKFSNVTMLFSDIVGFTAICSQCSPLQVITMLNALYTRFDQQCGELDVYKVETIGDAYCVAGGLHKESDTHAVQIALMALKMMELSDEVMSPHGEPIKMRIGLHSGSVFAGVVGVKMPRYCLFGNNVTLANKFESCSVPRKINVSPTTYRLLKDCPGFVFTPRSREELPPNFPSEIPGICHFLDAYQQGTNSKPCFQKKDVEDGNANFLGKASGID
T1 sequence (Q02153 1-619): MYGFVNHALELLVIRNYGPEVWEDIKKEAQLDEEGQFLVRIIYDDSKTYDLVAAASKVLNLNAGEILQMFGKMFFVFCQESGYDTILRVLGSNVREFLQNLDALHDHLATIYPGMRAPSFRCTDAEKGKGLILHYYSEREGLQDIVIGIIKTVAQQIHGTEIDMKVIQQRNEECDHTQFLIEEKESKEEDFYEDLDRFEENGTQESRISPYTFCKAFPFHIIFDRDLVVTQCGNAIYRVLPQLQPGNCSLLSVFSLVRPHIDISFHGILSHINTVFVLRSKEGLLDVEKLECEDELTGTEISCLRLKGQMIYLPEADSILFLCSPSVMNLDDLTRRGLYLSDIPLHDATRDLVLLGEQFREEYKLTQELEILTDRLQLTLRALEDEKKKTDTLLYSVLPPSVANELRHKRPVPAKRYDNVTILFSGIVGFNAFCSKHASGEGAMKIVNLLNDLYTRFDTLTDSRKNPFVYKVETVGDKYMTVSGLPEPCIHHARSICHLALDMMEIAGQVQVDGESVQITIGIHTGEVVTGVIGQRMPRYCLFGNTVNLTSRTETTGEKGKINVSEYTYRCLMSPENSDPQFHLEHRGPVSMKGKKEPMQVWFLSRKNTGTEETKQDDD
The assay can be described thus: sGC-HEK-cGMP assay with LC/MS detection (Example 2A). In kind it is cell-based. The following applies: HEK293 cells, 10 μM DETA-NONOate, 20 min; concentration eliciting 50% of high control response (30 μM Compound Y); read-out: Absolute EC50 (nM) - binned. On the procedure: Human embryonic kidney cells (HEK293), endogenously expressing soluble guanylate cyclase (sGC), were used to evaluate the activity of test compounds. Compounds stimulating the sGC enzyme should cause an increase in the intracellular concentration of cGMP. HEK 293 cells were seeded in Dulbecco's Modification of Eagle's Medium supplemented with fetal bovine serum (10% final) and penicillin (100 U/mL)/streptomycin (100 μg/mL) in a 50 μL, volume at a density of 1.5×10^4 cells/well in a poly-D-lysine coated 384 well flat bottom plate. Cells were incubated overnight at 37° C. in a humidified chamber with 5% CO2. Medium was aspirated and cells were washed with 1× Hank's Buffered Saline Salt Solution (50 μL). Cells were then incubated for 15 minutes at 37° C. with 50 μL of a 0.5 mM 3-isobutyl-1-methylxanthine (IBMX) solution. Test article and Diethylenetriamine NONOate (DETA-NONOate) solutions (x μM concentration for test article solution and 10 μM concentration for DETA-NONOate solution; wherein x is one of the following concentrations);
were then added to the assay mixture and the resulting mixture incubated at 37° C. for 20 minutes. After the 20 minute incubation, the assay mixture was aspirated and 10% acetic acid containing 150 ng/mL+3-cGMP (internal standard for LCMS) (50 μL) was added to the cells. The plate was incubated at 4° C. for 30 minutes in the acetic acid solution to stop the reaction and lyse the cells. The plates were then centrifuged at 1,000 g for 3 minutes at 4° C. and the supernatant transferred to a clean reaction plate for LCMS analysis.
cGMP concentrations were determined from each sample using the LCMS conditions below (Table 2) and calculated standard curve. The standard curve was prepared in 10% acetic acid with 150 ng/mL+3cGMP (isotopically labelled cGMP with a weight 3 units higher than wild type) with the following final concentrations of cGMP in ng/mL: 1, 5, 10, 50, 100, 250, 500, 1000, 2000.
(§1) Data were normalized to a high control using the following equation: 100*(Sample—Low Control)/(High Control—Low Control), where the low control is the average of 16 samples treated with 1% DMSO, and the high control is the average of 16 samples treated with 30 μM of Compound Y depicted below. Data were fit using a 4-parameter fit (log(agonist) vs. response variable slope) using GraphPad Prism Software v.5. n=2 for all compounds. […] Compounds failing to elicit a minimum response of 50% are reported as >30 μM. For compounds run in duplicate or n higher than 2, the result herein given is the geometric mean of the several results obtained.
As for `CCOC(=O)C1(C)C(=O)Nc2nc(-c3cc(C(C)=O)n(Cc4ccccc4F)n3)nc(N)c21` (centres unmarked) [Compound I-19], the EC50 is under 100 nM.

For the compound `CCOC(=O)C1(C)C(=O)Nc2nc(-c3cc(-c4ccon4)n(Cc4ccccc4F)n3)nc(Br)c21` (centres unmarked) [Compound I-17], the EC50 fell in the range of 100 to 1000 nM. For `CC1(C)C(=O)N(CCO)c2nc(-c3cc(-c4ccon4)n(Cc4ccccc4F)n3)nnc21` [Compound I-4], the EC50 was over 1000 nM. On to `CC1(C(=O)NCCO)C(=O)Nc2nc(-c3cc(-c4ccon4)n(Cc4ccccc4F)n3)nc(NCCO)c21` (centres unmarked) [Compound I-7], for which the EC50 was over 1000 nM.

In the case of `COc1cc(-c2nc(N)c3c(n2)NC(=O)C3(C)C)nn1Cc1ccccc1F` [Compound I-23], the EC50 was in the range of 100 to 1000 nM. On to `CC(=O)c1cc(-c2nc(N)c3c(n2)NC(=O)C3(C)C(N)=O)nn1Cc1ccccc1F` (centres unmarked) [Compound I-20], for which the EC50 lay in the range of 100 to 1000 nM.

Regarding `CC1(C(N)=O)C(=O)Nc2nc(-c3cc(-c4ccon4)n(Cc4ccccc4F)n3)ncc21` (centres unmarked) [Compound I-16], the EC50 is over 1000 nM. With `CCOC(=O)C1(C)C(=O)Nc2nc(-c3ccn(Cc4ccccc4F)n3)nc(N)c21` (centres unmarked) [Compound I-13, ethyl 4-amino-2-(1-(2-fluorobenzyl)-1H-pyrazol-3-yl)-5-methyl-6-oxo-6,7-dihydro-5H-pyrrolo[2,3-d]pyrimidine-5-carboxylate], the EC50 fell in the range of 100 to 1000 nM. In the case of `COc1cc(-c2nc(N)c3c(n2)NC(=O)C3(C)c2nnc(C)o2)nn1Cc1ccccc1F` (centres unmarked) [Compound I-1, 4-amino-2-(1-(2-fluorobenzyl)-5-methoxy-1H-pyrazol-3-yl)-5-methyl-5-(5-methyl-1,3,4-oxadiazol-2-yl)-5H-pyrrolo[2,3-d]pyrimidin-6(7H)-one], the EC50 was under 100 nM. The same measure, in the same setting: under `CCOC(=O)C1(C)C(=O)Nc2nc(-c3cc(-c4ccon4)n(Cc4ccccc4F)n3)ncc21` (centres unmarked) [Compound I-18] stands 100 to 1000 nM; under `COCc1cc(-c2nc(N)c3c(n2)NC(=O)C3(C)C(N)=O)nn1Cc1ccccc1F` (centres unmarked) [Compound I-22], over 1000 nM. Turning to `OCCn1nnc2cnc(-c3cc(-c4ccon4)n(Cc4ccccc4F)n3)nc21` [Compound I-2], the EC50 was over 1000 nM. Turning to `Fc1ccccc1Cn1nc(-c2ncc3[nH]nnc3n2)cc1-c1ccon1` [Compound I-15], the EC50 was over 1000 nM.

The target of a further assay is T2, sGC enzyme (Homo sapiens, UniProt Q02108+Q02153).
T2 construct: host or cells: HEK293 expressing GloSensor 40F cGMP
T2 sequence (Q02108 1-690): T1 sequence (Q02108 1-690)
T2 sequence (Q02153 1-619): T1 sequence (Q02153 1-619)
Put plainly: cGMP GloSensor cell-based assay, 384-well format (Example 2B). The following applies: HEK293 GloSensor 40F cGMP cells, 10 μM DETA-NONOate; 50% of high control response (Compound Y); read-out: sGC_HEK_GloSensor EC50/IC50 Abs (Norm) (nM) Binned. The procedure: as §1
Human embryonic kidney cells (HEK293) cells expressing GloSensor™ 40F cGMP (Part No: CS182801, Promega) were used to evaluate the activity of test compounds. The luminescent biosensors (engineered luciferase) that were incorporated into these cells detect cGMP formed by the compounds stimulating the sGC enzyme and emit luminescence.
cGMP GloSensor cells were maintained in Dulbecco's Modification of Eagle's Medium (DMEM) supplemented with fetal bovine serum (FBS) (10% final) and hygromycine (200 μg/ml). The day before assay, cells were plated in DMEM with 10% FBS in a 50 μL volume at a density of 1.5×10^4 cells/well in a poly-D-lysine coated 384-well flat white-bottom plate (Corning Cat No 35661). Cells were incubated overnight at 37° C. in a humidified chamber with 5% CO2. The next day, medium was removed and cells were replaced with 40 μl/well of GloSensor™, […] (Promega Cat No E1291). Cells were treated for 90 minutes at 25° C. to allow the substrate to equilibrate in the cells. Test compounds and Diethylenetriamine NONOate (DETA-NONOate) was diluted to […] in serum-free CO2 independent medium and serally diluted at 4× dilutions to create 5× dose curve from which 10 ul was added to the wells (x uM concentration for test compound solution and 10 μM concentration for DETA-NONOate solution; wherein x is one of the following final concentrations).
For the kinetics studies, luminescense was measured right away for 0.2 sec per well with Envision (Perkin Elmer model No). For endpoint SAR screening, data were collected after 55 min incubation at room temperature.
Data analysis was carried out as indicated above in Example 2A.
As for `CCOc1cc(-c2ncc3c(n2)NC(=O)C3(C)C)nn1Cc1ccccc1F` [Compound I-34], the EC50 is over 1000 nM. For the compound `COc1cc(-c2ncc3c(n2)NC(=O)C3(C)C)nn1Cc1ccccc1Cl` [Compound I-56], the EC50 lay within 100 to 1000 nM. The same measure, in the same setting: the same measure for `Cn1c(=O)[nH]c2nc(-c3cc(-c4ccon4)n(Cc4ccccc4F)n3)ncc21` [Compound I-65]: over 30000 nM. Take `COc1cc(-c2ncc3c(n2)NC(=O)C3(C)C)nn1Cc1ccccc1` [Compound I-52]: the EC50 lay within 100 to 1000 nM. On the same count and under the same terms, the same measure for `CC1(C)C(=O)Nc2nc(-c3cc(O)n(Cc4ccccc4F)n3)ncc21` [Compound I-29]: over 1000 nM; for `COc1c(C)c(-c2ncc3c(n2)NC(=O)C3(C)C)nn1Cc1ccccc1F` [Compound I-43]: 100 to 1000 nM.

For the compound `Cc1cn(-c2ncc3c(n2)NC(=O)C3(C)C)nc1Cc1ccccc1F` [Compound I-85], the EC50 was in the range of 100 to 1000 nM. Consider `COc1nc(-c2ccn(Cc3ccccc3F)n2)nc2c1C(C)(C)C(=O)N2` [Compound I-78], for which the EC50 is over 1000 nM. Consider `COc1cc(-c2ncc3c(n2)NC(=O)C3(C)C)nn1Cc1ccc(C)cc1` [Compound I-58], for which the EC50 was under 100 nM. The same measure, in the same setting: the same measure for `COc1cc(-c2nc(N)c3c(n2)NC(=O)C3(C)C)nn1Cc1cncnc1` [Compound I-92, 4-amino-2-(5-methoxy-1-(pyrimidin-5-ylmethyl)-1H-pyrazol-3-yl)-5,5-dimethyl-5H-pyrrolo[2,3-d]pyrimidin-6(7H)-one]: over 1000 nM. Consider `CC1(C)C(=O)Nc2nc(-n3cc(-c4ccon4)c(Cc4ccccc4F)n3)nc(N)c21` [Compound I-80, 4-amino-2-(3-(2-fluorobenzyl)-4-(isoxazol-3-yl)-1H-pyrazol-1-yl)-5,5-dimethyl-5H-pyrrolo[2,3-d]pyrimidin-6(7H)-one], for which the EC50 was under 100 nM. In the case of `CC1(C)C(=O)Nc2nc(-c3cc(OC(F)F)n(Cc4ccccc4F)n3)ncc21` [Compound I-31], the EC50 fell in the range of 100 to 1000 nM.

On to `COc1c(C)c(-c2nc(O)c3c(n2)NC(=O)C3(C)C)nn1Cc1ccccc1F` [Compound I-42], for which the EC50 was over 1000 nM. Same read-out and setting: the same measure for `COc1cc(-c2ncc3c(n2)NC(=O)C3(C)C)nn1Cc1ccc(C)cc1F` [Compound I-63]: under 100 nM; for `COc1cc(-c2ncc3c(n2)NC(=O)C3(C)C)nn1Cc1ccccc1F` [Compound I-24]: 100 to 1000 nM; for `COc1cc(-c2ncc3c(n2)N(C(=O)OC(C)(C)C)C(=O)C3(C)C)nn1Cc1ccccc1` [Compound I-54, 2-(1-benzyl-5-methoxy-1H-pyrazol-3-yl)-5,5-dimethyl-6-oxo-5H-pyrrolo-[2,3-d]pyrimidine-7(6H)-carboxylate]: 100 to 1000 nM.
